SMILES strings stand for the structures. pKi: −log10 of the molar value.

Usually pKi stands for the negative decadic logarithm of the Ki, by convention in mol/L.

T1 sequence (P00742 235-488 limits assumed): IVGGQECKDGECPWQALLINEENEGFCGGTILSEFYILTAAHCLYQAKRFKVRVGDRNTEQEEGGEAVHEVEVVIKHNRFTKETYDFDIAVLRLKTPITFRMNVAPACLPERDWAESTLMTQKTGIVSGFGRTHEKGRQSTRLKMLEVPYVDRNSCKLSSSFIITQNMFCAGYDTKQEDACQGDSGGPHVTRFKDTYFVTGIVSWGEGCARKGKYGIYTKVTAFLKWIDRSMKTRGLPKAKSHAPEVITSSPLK
T1 sequence (P00742 41-179 partner limits assumed): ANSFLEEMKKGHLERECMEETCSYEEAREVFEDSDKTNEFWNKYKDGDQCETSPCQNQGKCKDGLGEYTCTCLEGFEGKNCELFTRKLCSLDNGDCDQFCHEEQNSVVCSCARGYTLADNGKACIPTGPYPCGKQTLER

One experiment concerns the target T1, human factor Xa (Homo sapiens, UniProt P00742).
T1 construct: 25 μl human factor Xa (Enzyme Research Laboratories, Inc; South Bend, Ind.); purchased Enzyme Research Laboratories, Inc; South Bend, Ind
Kind of experiment: Factor Xa chromogenic assay (substrate S-2765).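 Also: purified enzyme, compound preincubated with the enzyme for 10 min before substrate addition starts the reaction.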 In kind it is biochemical. As to conditions: inhibition constant for inhibition of factor Xa; IC50 corrected for substrate competition; 25° C., enzyme 0.5 nM, substrate 140 μM; read-out: Ki(FXa).
Regarding `COc1cc(C(=O)NCC2CCN(c3ccncc3)CC2)cc(OCCc2ccc(Cl)cc2)c1Cl` [Example 202, 4-Chloro-3-[2-(4-chloro-phenyl)-ethoxy]-5-methoxy-N-(3,4,5,6-tetrahydro-2H-[1,4′]bipyridinyl-4-ylmethyl)-benzamide], the pKi is 7.60.

Staying with this experiment, now noted: read-out: Ki(FXa).
In the case of `Cc1ccc(C(=O)NCC2CCN(c3ccnc(Cl)n3)CC2)cc1OCCc1ccc(Cl)cc1Cl` [Example 172, N-[1-(2-Chloro-pyrimidin-4-yl)-piperidin-4-ylmethyl]-3-[2-(2,4-dichloro-phenyl)-ethoxy]-4-methyl-benzamide], the pKi is 5.19.
Consider `O=C(c1ccc(Br)c(OCCc2ccc(Cl)cc2Cl)c1)N1CCN(Cc2ccncc2)CC1` [Example 176, {4-Bromo-3-[2-(2,4-dichloro-phenyl)-ethoxy]-phenyl}-(4-pyridin-4-ylmethyl-piperazin-1-yl)-methanone], for which the pKi is 6.44.
The same measure, in the same setting: under `CCOc1cc(C(=O)N2CCN(Cc3ccncc3)CC2)cc(OCCc2ccc(Cl)cc2Cl)c1OCC` [Example 177, {3-[2-(2,4-Dichloro-phenyl)-ethoxy]-4,5-diethoxy-phenyl}-(4-pyridin-4-ylmethyl-piperazin-1-yl)-methanone] stands 6.65.
Same read-out and setting: under `CCOc1cc(C(=O)N2CCN(Cc3ccncc3)CC2)cc(OCCc2ccc(Cl)cc2Cl)c1Br` [Example 180, {4-Bromo-3-[2-(2,4-dichloro-phenyl)-ethoxy]-5-ethoxy-phenyl}-(4-pyridin-4-ylmethyl-piperazin-1-yl)-methanone] stands 6.59; under `O=C(c1ccc(Cl)c(OCCc2ccc(Cl)cc2Cl)c1)N1CCN(Cc2ccncc2)CC1` [Example 182, {4-Chloro-3-[2-(2,4-dichloro-phenyl)-ethoxy]-phenyl}-(4-pyridin-4-ylmethyl-piperazin-1-yl)-methanone], 6.51; under `CC(C)Oc1ccc(C(=O)N2CCN(Cc3ccncc3)CC2)cc1OCCc1ccc(Cl)cc1Cl` [Example 184, {3-[2-(2,4-Dichloro-phenyl)-ethoxy]-4-isopropoxy-phenyl}-(4-pyridin-4-ylmethyl-piperazin-1-yl)-methanone], 6.21.
On the same count and under the same terms, the result for `O=C(c1cc(OCCc2ccc(Cl)cc2Cl)c2c(c1)OCO2)N1CCN(Cc2ccncc2)CC1` [Example 186, {7-[2-(2,4-Dichloro-phenyl)-ethoxy]-benzo[1,3]dioxol-5-yl}-(4-pyridin-4-ylmethyl-piperazin-1-yl)-methanone] reads 6.40; that for `O=C(c1ccc(Cl)c(OCCc2ccc(Cl)cc2Cl)c1)N1CCN(Cc2cc[n+](O)cc2)CC1` [Example 187, {4-Chloro-3-[2-(2,4-dichloro-phenyl)-ethoxy]-phenyl}-[4-(1-oxy-pyridin-4-ylmethyl)-piperazin-1-yl]-methanone], 6.02.
Consider `COc1ccc(C(=O)N2CCN(CCCN(C)C)CC2)cc1OCCc1ccc(Cl)cc1Cl` [Example 195], for which the pKi is 5.17.
On the same count and under the same terms, the result for `COc1ccc(C(=O)N2CCCN(CCCN3CCCC3)CC2)cc1OCCc1ccc(Cl)cc1Cl` [Example 196] reads 5.37; that for `COc1ccc(C(=O)N2CCN(CCN(C)C)CC2)cc1OCCc1ccc(Cl)cc1Cl` [Example 197], 5.22; that for `COc1ccc(C(=O)N2CCN(CCN3CCCC3)CC2)cc1OCCc1ccc(Cl)cc1Cl` [Example 198], 5.30.
Regarding `COc1cc(C(=O)N2CCN(Cc3ccncc3)CC2)cc(OCCc2ccc(Cl)cc2Cl)c1Cl` [Example 200, {4-Chloro-3-[2-(2,4-dichloro-phenyl)-ethoxy]-5-methoxy-phenyl}-(4-pyridin-4-ylmethyl-piperazin-1-yl)-methanone], the pKi was 6.97.
Still for that read-out and setting: under `O=C(NCC1CCN(c2ccncc2)CC1)c1ccc(Cl)c(OCCc2ccc(F)cc2Cl)c1` [Example 207] stands 7.17.
On the same count and under the same terms, the result for `O=C(NCC1CCN(c2ccncc2)CC1)c1ccc(F)c(OCCc2ccc(F)cc2Cl)c1` [Example 215] reads 7.23.
Still for that read-out and setting: the result for `COc1cc(C(=O)NCC2CCN(c3ccnc(C)c3)CC2)cc(OCCc2ccc(Cl)cc2)c1Cl` [Example 222, 4-Chloro-3-[2-(4-chloro-phenyl)-ethoxy]-5-methoxy-N-(2′-methyl-3,4,5,6-tetrahydro-2H-[1,4′]bipyridinyl-4-ylmethyl)-benzamide] reads 7.14.
With `Cc1cc(N2CCC(CNC(=O)c3ccc(Cl)c(OCCc4ccc(Cl)cc4)c3)CC2)ccn1` [Example 223, 4-Chloro-3-[2-(4-chloro-phenyl)-ethoxy]-N-(2′-methyl-3,4,5,6-tetrahydro-2H-[1,4′]bipyridinyl-4-ylmethyl)-benzamide], the pKi is 7.36.
In the case of `COc1cc(C(=O)NCC2CCN(c3ccncc3)CC2)cc(OCCc2ccc(Cl)cc2)c1Br` [Example 224, 4-Bromo-3-[2-(4-chloro-phenyl)-ethoxy]-5-methoxy-N-(3,4,5,6-tetrahydro-2H-[1,4′]bipyridinyl-4-ylmethyl)-benzamide], the pKi was 7.70.
Same read-out and setting: under `COc1cc(C(=O)NCC2CCN(c3ccnc(C)c3)CC2)cc(OCCc2ccc(Cl)cc2)c1Br` [Example 225, 4-Bromo-3-[2-(4-chloro-phenyl)-ethoxy]-5-methoxy-N-(2′-methyl-3,4,5,6-tetrahydro-2H-[1,4′]bipyridinyl-4-ylmethyl)-benzamide] stands 7.19.
On the same count and under the same terms, under `O=C(O)c1cc(OCCc2ccc(Cl)cc2Cl)cc(C(=O)NCC2CCN(c3ccncc3)CC2)c1` [Example 226, 5-[2-(2,4-Dichlorophenyl)-ethoxy]-N-(3,4,5,6-tetrahydro-2H-[1,4′]bipyridinyl-4-ylmethyl)-isophthalamic acid] stands 7.09.
The same measure, in the same setting: under `O=C(NCC1CCN(c2ccncc2)CC1)c1cc(OCCc2ccc(Cl)cc2Cl)cc(C(=O)NCC2CCN(c3ccncc3)CC2)c1` [Example 227, 5-[2-(2,4-Dichloro-phenyl)-ethoxy]-N,N′-bis-(3,4,5,6-tetrahydro-2H-[1,4′]bipyridinyl-4-ylmethyl)-isophthalamide] stands 7.24.
For `COc1cc(C(=O)NCC2CCN(c3cc[n+](O)cc3)CC2)cc(OCCc2ccc(Cl)cc2Cl)c1Cl` [Example 228, 4-Chloro-3-[2-(2,4-dichloro-phenyl)-ethoxy]-5-methoxy-N-(1′-oxy-3,4,5,6-tetrahydro-2H-[1,4′]bipyridinyl-4-ylmethyl)-benzamide], the pKi is 6.66.
Regarding `O=C(NCC1CCN(c2cc[n+](O)cc2)CC1)c1ccc(Cl)c(OCCc2ccc(Cl)cc2Cl)c1` [Example 230, 4-Chloro-3-[2-(2,4-dichloro-phenyl)-ethoxy]-N-(1′-oxy-3,4,5,6-tetrahydro-2H-[1,4′]bipyridinyl-4-ylmethyl)-benzamide], the pKi is 6.19.
As for `O=C(NCC1CCN(c2cc[n+](O)cc2)CC1)c1ccc(Cl)c(OCCc2ccc(Cl)cc2)c1` [Example 231, 4-Chloro-3-[2-(4-chloro-phenyl)-ethoxy]-N-(1′-oxy-3,4,5,6-tetrahydro-2H-[1,4′]bipyridinyl-4-ylmethyl)-benzamide], the pKi is 6.64.
Same read-out and setting: the result for `CCN(CC)C(=O)c1cc(OCCc2ccc(Cl)cc2Cl)cc(C(=O)NCC2CCN(c3ccncc3)CC2)c1` [Example 232, 5-[2-(2,4-Dichloro-phenyl)-ethoxy]-N,N-diethyl-N′-(3,4,5,6-tetrahydro-2H-[1,4′]bipyridinyl-4-ylmethyl)-isophthalamide] reads 6.72.
On the same count and under the same terms, the result for `O=C(NCC1CCN(c2ccncc2)CC1)c1cccc(CNCc2ccc(Cl)cc2Cl)c1` [Example 233, 3-[(2,4-Dichloro-benzylamino)-methyl]-N-(3,4,5,6-tetrahydro-2H-[1,4′]bipyridinyl-4-ylmethyl)-benzamide] reads 6.56.
Still for that read-out and setting: the result for `Cc1ccc(C(=O)NCC2CCN(c3ccncc3)CC2)cc1OCc1ccc(Cl)cc1` [Example 239] reads 5.42; that for `COc1ccc(COc2cc(C(=O)NCC3CCN(c4ccncc4)CC3)ccc2C)cc1` [Example 240], 5.87.
As for `COc1cccc(COc2cc(C(=O)NCC3CCN(c4ccncc4)CC3)ccc2C)c1` [Example 241], the pKi was 5.66.
`Cc1ccc(C(=O)NCC2CCN(c3ccncc3)CC2)cc1OCc1ccc(OC(F)(F)F)cc1` [Example 242]: the pKi is 5.53.

The values are drawn from patent US7067665B2, “Oxybenzamide derivatives useful for inhibiting factor Xa or Vlla” (Sanofi-Aventis Deutschland GmbH, priority 2000, dated 2006).
